In PubChem BioAssay (NCI):
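Values below derive from 48-hour exposures of cells grown in 96-well plates, with endpoints linearly interpolated between the two concentrations bracketing the appropriate inhibition level. GI50 is the concentration that inhibits growth by half. TGI is the concentration that stops growth completely.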

Key:
Assay in all cases: growth of human tumour cells (NCI), 48 h
MDA-MB-435 = system: MDA-MB-435
HCT-116 colon = system: HCT-116 colon
COLO 205 colon = system: COLO 205 colon
UO-31 renal = system: UO-31 renal
OVCAR-3 ovarian = system: OVCAR-3 ovarian
SK-MEL-2 melanoma = system: SK-MEL-2 melanoma
HOP-92 NSCLC = system: HOP-92 NSCLC
T-47D breast = system: T-47D breast
MOLT-4 leukemia = system: MOLT-4 leukemia
OVCAR-4 ovarian = system: OVCAR-4 ovarian
MCF7 breast = system: MCF7 breast
SF-295 CNS = system: SF-295 CNS
ACHN renal = system: ACHN renal
NCI-H226 lung = system: NCI-H226 lung
EKVX NSCLC = system: EKVX NSCLC
UACC-257 melanoma = system: UACC-257 melanoma
NCI-H460 lung = system: NCI-H460 lung
OVCAR-8 ovarian = system: OVCAR-8 ovarian
BT-549 breast = system: BT-549 breast
SNB-19 CNS = system: SNB-19 CNS
SF-268 CNS = system: SF-268 CNS
SNB-75 CNS = system: SNB-75 CNS
NCI-H522 lung = system: NCI-H522 lung
HCT-15 colon = system: HCT-15 colon
HCC-2998 colon = system: HCC-2998 colon
CCRF-CEM leukemia = system: CCRF-CEM leukemia
NCI-H23 lung = system: NCI-H23 lung
NCI/ADR-RES ovarian = system: NCI/ADR-RES ovarian
SK-MEL-5 melanoma = system: SK-MEL-5 melanoma
SW-620 colon = system: SW-620 colon
RXF 393 renal = system: RXF 393 renal
SF-539 CNS = system: SF-539 CNS
SR leukemia = system: SR leukemia
HOP-62 NSCLC = system: HOP-62 NSCLC
TK-10 renal = system: TK-10 renal
MALME-3M melanoma = system: MALME-3M melanoma
MDA-MB-468 breast = system: MDA-MB-468 breast
IGROV1 ovarian = system: IGROV1 ovarian
A549 NSCLC = system: A549 NSCLC
SK-MEL-28 melanoma = system: SK-MEL-28 melanoma
SK-OV-3 ovarian = system: SK-OV-3 ovarian
OVCAR-5 ovarian = system: OVCAR-5 ovarian
CAKI-1 renal = system: CAKI-1 renal
MDA-MB-231 breast = system: MDA-MB-231 breast
K-562 leukemia = system: K-562 leukemia
SN12C renal = system: SN12C renal
KM12 colon = system: KM12 colon
LOX IMVI melanoma = system: LOX IMVI melanoma
A498 renal = system: A498 renal
U251 CNS = system: U251 CNS
DU-145 prostate = system: DU-145 prostate
RPMI-8226 leukemia = system: RPMI-8226 leukemia
HL-60(TB) leukemia = system: HL-60(TB) leukemia
786-0 renal = system: 786-0 renal
UACC-62 melanoma = system: UACC-62 melanoma
HT29 colon = system: HT29 colon
M14 melanoma = system: M14 melanoma
PC-3 prostate = system: PC-3 prostate
HS 578T breast = system: HS 578T breast

For `O=c1[nH]c2ccccc2cc1CSc1ccc(Nc2nccc(-c3ccc(Cl)cc3)n2)cc1`, the GI50 (MDA-MB-435) was 2.75 µM, the TGI (MDA-MB-435) was 13.1 µM and the GI50 (HCT-116 colon) was 0.644 µM. It also gave a TGI (HCT-116 colon) of 3.65 µM, a GI50 (COLO 205 colon) of 2.64 µM and a TGI (COLO 205 colon) of 25 µM. It also gave a GI50 (UO-31 renal) of 1.83 µM, a TGI (UO-31 renal) of 4.03 µM and a GI50 (OVCAR-3 ovarian) of 0.945 µM. It also gave a TGI (OVCAR-3 ovarian) of 2.46 µM, a GI50 (SK-MEL-2 melanoma) of 12.9 µM and a TGI (SK-MEL-2 melanoma) of 26.2 µM. The GI50 (HOP-92 NSCLC) was 1.11 µM, the TGI (HOP-92 NSCLC) was 2.8 µM and the GI50 (T-47D breast) was 2.24 µM. The TGI (T-47D breast) was 8.07 µM, the GI50 (MOLT-4 leukemia) was 3.78 µM and the TGI (MOLT-4 leukemia) was 56.9 µM. For the same compound, the GI50 (OVCAR-4 ovarian) was 0.334 µM, the TGI (OVCAR-4 ovarian) was 1.26 µM and the GI50 (MCF7 breast) was 2.59 µM. For the same compound, the TGI (MCF7 breast) was 15.9 µM, the GI50 (SF-295 CNS) was 0.776 µM and the TGI (SF-295 CNS) was 2.14 µM. It also gave a GI50 (ACHN renal) of 0.744 µM, a TGI (ACHN renal) of 2.18 µM and a GI50 (NCI-H226 lung) of 1.3 µM. For the same compound, the TGI (NCI-H226 lung) was 2.88 µM, the GI50 (EKVX NSCLC) was 1.42 µM and the TGI (EKVX NSCLC) was 4.77 µM. The GI50 (UACC-257 melanoma) was 13.3 µM, the TGI (UACC-257 melanoma) was 79.5 µM and the GI50 (NCI-H460 lung) was 0.383 µM. The TGI (NCI-H460 lung) was 1.42 µM, the GI50 (OVCAR-8 ovarian) was 1.6 µM and the TGI (OVCAR-8 ovarian) was 3.5 µM. The GI50 (BT-549 breast) was 2.16 µM, the TGI (BT-549 breast) was 6.98 µM and the GI50 (SNB-19 CNS) was 1.18 µM. It also gave a TGI (SNB-19 CNS) of 2.58 µM, a GI50 (SF-268 CNS) of 1.07 µM and a TGI (SF-268 CNS) of 4.97 µM. The GI50 (SNB-75 CNS) was 0.245 µM, the TGI (SNB-75 CNS) was 1.42 µM and the GI50 (NCI-H522 lung) was 2.17 µM. The TGI (NCI-H522 lung) was 6.79 µM, the GI50 (HCT-15 colon) was 1.02 µM and the TGI (HCT-15 colon) was 15.2 µM. The GI50 (HCC-2998 colon) was 4.05 µM, the TGI (HCC-2998 colon) was 25.3 µM and the GI50 (CCRF-CEM leukemia) was 2.93 µM. For the same compound, the TGI (CCRF-CEM leukemia) was 23.2 µM, the GI50 (NCI-H23 lung) was 1.66 µM and the TGI (NCI-H23 lung) was 4.85 µM. The GI50 (NCI/ADR-RES ovarian) was 1.13 µM, the TGI (NCI/ADR-RES ovarian) was 3.32 µM and the GI50 (SK-MEL-5 melanoma) was 2.49 µM. The TGI (SK-MEL-5 melanoma) was 9.56 µM, the GI50 (SW-620 colon) was 1.54 µM and the TGI (SW-620 colon) was 13.4 µM. For the same compound, the GI50 (RXF 393 renal) was 1.7 µM, the TGI (RXF 393 renal) was 4.42 µM and the GI50 (SF-539 CNS) was 1.66 µM. It also gave a TGI (SF-539 CNS) of 3.4 µM, a GI50 (SR leukemia) of 6.37 µM and a TGI (SR leukemia) of 29.7 µM. The GI50 (HOP-62 NSCLC) was 1.72 µM, the TGI (HOP-62 NSCLC) was 3.45 µM and the GI50 (TK-10 renal) was 1.65 µM. The TGI (TK-10 renal) was 3.34 µM, the GI50 (MALME-3M melanoma) was 1.81 µM and the TGI (MALME-3M melanoma) was 6.09 µM. The GI50 (MDA-MB-468 breast) was 1.15 µM, the TGI (MDA-MB-468 breast) was 3.14 µM and the GI50 (IGROV1 ovarian) was 3.71 µM. For the same compound, the TGI (IGROV1 ovarian) was 14.3 µM, the GI50 (A549 NSCLC) was 1.46 µM and the TGI (A549 NSCLC) was 3.5 µM. It also gave a GI50 (SK-MEL-28 melanoma) of 4.45 µM, a TGI (SK-MEL-28 melanoma) of 23.6 µM and a GI50 (SK-OV-3 ovarian) of 2.26 µM. The TGI (SK-OV-3 ovarian) was 5.49 µM, the GI50 (OVCAR-5 ovarian) was 2.47 µM and the TGI (OVCAR-5 ovarian) was 11.2 µM. The GI50 (CAKI-1 renal) was 1.17 µM, the TGI (CAKI-1 renal) was 2.73 µM and the GI50 (MDA-MB-231 breast) was 1.26 µM. The TGI (MDA-MB-231 breast) was 3.04 µM, the GI50 (K-562 leukemia) was 2.57 µM and the TGI (K-562 leukemia) was 18.3 µM. The GI50 (SN12C renal) was 1.99 µM, the TGI (SN12C renal) was 4.47 µM and the GI50 (KM12 colon) was 11 µM. The TGI (KM12 colon) was > 100 µM, the GI50 (LOX IMVI melanoma) was 1.83 µM and the TGI (LOX IMVI melanoma) was 5.24 µM. For the same compound, the GI50 (A498 renal) was 1.23 µM, the TGI (A498 renal) was 2.6 µM and the GI50 (U251 CNS) was 0.368 µM. It also gave a TGI (U251 CNS) of 1.44 µM, a GI50 (DU-145 prostate) of 1.52 µM and a TGI (DU-145 prostate) of 9.16 µM. For the same compound, the GI50 (RPMI-8226 leukemia) was 2.41 µM, the TGI (RPMI-8226 leukemia) was 21.5 µM and the GI50 (HL-60(TB) leukemia) was 43.2 µM. For the same compound, the TGI (HL-60(TB) leukemia) was > 100 µM, the GI50 (786-0 renal) was 1.16 µM and the TGI (786-0 renal) was 2.55 µM. The GI50 (UACC-62 melanoma) was 3.92 µM, the TGI (UACC-62 melanoma) was 15.2 µM and the GI50 (HT29 colon) was 0.917 µM. The TGI (HT29 colon) was 5.52 µM, the GI50 (M14 melanoma) was 4.9 µM and the TGI (M14 melanoma) was 30.9 µM. It also gave a GI50 (PC-3 prostate) of 1.83 µM, a TGI (PC-3 prostate) of 6.28 µM and a GI50 (HS 578T breast) of 0.621 µM. For the same compound, the TGI (HS 578T breast) was 3.45 µM.
